Experiment [1] has as its target T1, E. coli K12 PBP3 (Escherichia coli, UniProt P0AD68).
T1 construct: made in house
Description: biochemical. Type of experiment: binding. The essentials:
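A. baumannii PBP2 (2.5 μM) and PBP3 (0.2 μM) were run in 25 mM Tris pH 8.0 buffer with Tween 20; E. coli PBP3 (1.5 μM) and N. gonorrhoeae PBP2 ([…]) in 50 mM Hepes pH 8.0 buffer.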

Experiment [2] concerns N. gonorrhoeae WHO G. As to the kind of experiment: Liquid broth MIC in Fastidious broth. Type of experiment: cell-based. Conditions: Neisseria gonorrhoeae; N. gonorrhoeae strain WHO G; Fastidious broth; read-out: Minimum Inhibitory Concentration, N. gonorrhoeae WHO G. The essentials:
(§1)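 Colonies were swabbed from chocolate agar after 24 h growth and standardised by optical density at 600 nm. Compounds were serially diluted twofold in Fastidious broth, and bacteria added to give 5×10^5 CFU/mL. After about 24 h at 36 °C in 5% CO2, the lowest concentration allowing under 10% growth was taken as MIC.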

The subject of experiment [3] is N. gonorrhoeae ATCC 49226. As to the kind of experiment: Liquid broth MIC in Fastidious broth. Type of experiment: cell-based. The note with it: Neisseria gonorrhoeae, ATCC49226; N. gonorrhoeae strain ATCC 49226; Fastidious broth; read-out: Minimum Inhibitory Concentration, N. gonorrhoeae ATCC 49226. An outline of the steps:
as §1

The subject of experiment [4] is N. gonorrhoeae H041. As to the kind of experiment: Liquid broth MIC in Fastidious broth. Type of experiment: cell-based. The note with it: Neisseria gonorrhoeae, H041, read-out: Minimum Inhibitory Concentration, N. gonorrhoeae H041. The essentials:
as §1

Experiment [5] relates to N. gonorrhoeae WHO L. As to the kind of experiment: Liquid broth MIC in Fastidious broth. Conditions: Neisseria gonorrhoeae; N. gonorrhoeae strain WHO L; Fastidious broth; read-out: Minimum Inhibitory Concentration, N. gonorrhoeae WHO L. Type of experiment: cell-based. An outline of the steps: as §1
The test system of experiment [6] is N. gonorrhoeae WHO K. As to the kind of experiment: Liquid broth MIC in Fastidious broth. Type of experiment: cell-based. The note with it: Neisseria gonorrhoeae, read-out: Minimum Inhibitory Concentration, N. gonorrhoeae WHO K. An outline of the steps:
as §1

Experiment [7] has as its system N. gonorrhoeae FA1090. Description: Liquid broth MIC in Fastidious broth. Type of experiment: cell-based. Conditions: Neisseria gonorrhoeae; N. gonorrhoeae strain FA1090; Fastidious broth; read-out: Minimum Inhibitory Concentration, N. gonorrhoeae FA1090. An outline of the steps:
as §1

Converted amounts (≈) assume the structure as drawn. Bounds are passed on as bounds.

T1 sequence (P0AD68 1-577): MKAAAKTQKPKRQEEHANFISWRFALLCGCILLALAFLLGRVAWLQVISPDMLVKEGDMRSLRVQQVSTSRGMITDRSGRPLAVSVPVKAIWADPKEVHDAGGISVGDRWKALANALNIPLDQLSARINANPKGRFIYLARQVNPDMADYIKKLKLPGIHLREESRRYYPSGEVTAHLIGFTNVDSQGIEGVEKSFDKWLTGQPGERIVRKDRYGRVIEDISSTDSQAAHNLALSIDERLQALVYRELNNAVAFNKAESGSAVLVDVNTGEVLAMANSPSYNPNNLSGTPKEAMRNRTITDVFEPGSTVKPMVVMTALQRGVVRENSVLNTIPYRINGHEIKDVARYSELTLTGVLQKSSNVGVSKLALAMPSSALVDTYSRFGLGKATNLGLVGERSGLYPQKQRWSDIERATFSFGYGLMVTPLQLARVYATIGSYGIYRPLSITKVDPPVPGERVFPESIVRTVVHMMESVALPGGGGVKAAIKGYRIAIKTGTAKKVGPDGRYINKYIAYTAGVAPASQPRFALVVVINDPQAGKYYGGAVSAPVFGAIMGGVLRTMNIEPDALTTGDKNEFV

In general, EC50 refers to the midpoint of the concentration-response curve. A higher EC50 goes with a less potent agent. In experiment [1], `CCN1CCN(C(=O)NC(C(=O)N[C@H]2Cc3cccc(C(=O)O)c3OB2O)c2ccc(O)c(NC(=O)c3ccc(O)c(O)c3Cl)c2)C(=O)C1=O` (stereo partly drawn) [Example 74, (3R)-3-(2-(3-(2-chloro-3,4-dihydroxybenzamido)-4-hydroxyphenyl)-2-(4-ethyl-2,3-dioxopiperazine-1-carboxamido)acetamido)-2-hydroxy-3,4-dihydro-2H-benzo[e][1,2]oxaborinine-8-carboxylic acid] displayed an EC50 of less than 30 µM. Further, the MIC in experiment [2] is 16 to 32 µg/mL (≈ 22.5 to 45.1 µM); in experiment [3], greater than 64 µg/mL; in experiment [4], greater than 64 µg/mL; in experiment [5] it was greater than 64 µg/mL; in experiment [6] it was greater than 64 µg/mL; in experiment [7], 1 to 2 µg/mL (≈ 1.41 to 2.82 µM).

Molecule `CCN1CCN(C(=O)NC(C(=O)N[C@H]2Cc3cccc(C(=O)O)c3OB2O)c2cccc([N+](=O)[O-])c2)C(=O)C1=O` (stereo partly drawn) [Example 75, (3R)-3-(2-(4-ethyl-2,3-dioxopiperazine-1-carboxamido)-2-(3-nitrophenyl)acetamido)-2-hydroxy-3,4-dihydro-2H-benzo[e][1,2]oxaborinine-8-carboxylic acid] gave a 50% effective concentration (EC50) in experiment [1] of 30 to 500 µM. For the same molecule, the MIC in experiment [2] is 4 to 8 µg/mL (≈ 7.23 to 14.5 µM); in experiment [3], 4 to 8 µg/mL (≈ 7.23 to 14.5 µM); in experiment [4], greater than 64 µg/mL; in experiment [5], greater than 64 µg/mL; in experiment [6], greater than 64 µg/mL; in experiment [7] it was 0.25 to 0.5 µg/mL (≈ 0.452 to 0.904 µM).

Molecule `CCN1CCN(C(=O)NC(C(=O)N[C@H]2Cc3cccc(C(=O)O)c3OB2O)c2cccc(NS(C)(=O)=O)c2)C(=O)C1=O` (stereo partly drawn) [Example 76, (3R)-3-(2-(4-ethyl-2,3-dioxopiperazine-1-carboxamido)-2-(3-(methylsulfonamido)phenyl)acetamido)-2-hydroxy-3,4-dihydro-2H-benzo[e][1,2]oxaborinine-8-carboxylic acid] yielded an EC50 in experiment [1] of less than 30 µM. Further, the MIC in experiment [2] is 16 to 32 µg/mL (≈ 26.6 to 53.2 µM); in experiment [3] it was greater than 64 µg/mL; in experiment [4], greater than 64 µg/mL; in experiment [5], greater than 64 µg/mL; in experiment [6], greater than 64 µg/mL; in experiment [7], 1 to 2 µg/mL (≈ 1.66 to 3.33 µM).

As for `CCN1CCN(C(=O)NC(C(=O)N[C@H]2Cc3cccc(C(=O)O)c3OB2O)c2cc(O)ccc2O)C(=O)C1=O` (stereo partly drawn) [Example 77, (3R)-3-(2-(2,5-dihydroxyphenyl)-2-(4-ethyl-2,3-dioxopiperazine-1-carboxamido)acetamido)-2-hydroxy-3,4-dihydro-2H-benzo[e][1,2]oxaborinine-8-carboxylic acid], the concentration for a half-maximal effect (EC50) in experiment [1] lay within 30 to 500 µM. In addition, the MIC in experiment [2] was 16 to 32 µg/mL (≈ 29.6 to 59.2 µM); in experiment [3], 16 to 32 µg/mL (≈ 29.6 to 59.2 µM); in experiment [4] it was greater than 64 µg/mL; in experiment [5], greater than 64 µg/mL; in experiment [6] it was greater than 64 µg/mL; in experiment [7], 4 to 8 µg/mL (≈ 7.4 to 14.8 µM).

Take `N=C(N)NCCN1CCN(C(=O)NC(C(=O)N[C@H]2Cc3ccc(F)c(C(=O)O)c3OB2O)c2ccc(C(=O)O)c(F)c2)C(=O)C1=O` (stereo partly drawn) [Example 78, (3R)-3-(2-(4-carboxy-3-fluorophenyl)-2-(4-(2-guanidinoethyl)-2,3-dioxopiperazine-1-carboxamido)acetamido)-7-fluoro-2-hydroxy-3,4-dihydro-2H-benzo[e][1,2]oxaborinine-8-carboxylic acid]: the EC50 in experiment [1] lay in the range of 30 to 500 µM. In addition, the MIC in experiment [2] was 4 to 8 µg/mL (≈ 6.2 to 12.4 µM); in experiment [3] it was 16 to 32 µg/mL (≈ 24.8 to 49.6 µM); in experiment [4], greater than 64 µg/mL; in experiment [5] it was greater than 64 µg/mL; in experiment [6] it was greater than 64 µg/mL; in experiment [7], 4 to 8 µg/mL (≈ 6.2 to 12.4 µM).

In turn, `CC(C)(C)[C@@H](NC(=O)N1CCN(CCNC(=O)c2c(F)cc(O)c(O)c2Cl)C(=O)C1=O)C(=O)N[C@H]1Cc2ccc(F)c(C(=O)O)c2OB1O` [Example 80, (R)-3-((R)-2-(4-(2-(2-chloro-6-fluoro-3,4-dihydroxybenzamido)ethyl)-2,3-dioxopiperazine-1-carboxamido)-3,3-dimethylbutanamido)-7-fluoro-2-hydroxy-3,4-dihydro-2H-benzo[e][1,2]oxaborinine-8-carboxylic acid] yielded a concentration giving a half-maximal response (EC50) in experiment [1] of less than 30 µM. For the same molecule, the MIC was 16 to 32 µg/mL (≈ 22.5 to 45.1 µM) in experiment [2]; 16 to 32 µg/mL (≈ 22.5 to 45.1 µM) in experiment [3]; greater than 64 µg/mL in experiment [4]; greater than 64 µg/mL in experiment [5]; greater than 64 µg/mL in experiment [6]; 4 to 8 µg/mL (≈ 5.63 to 11.3 µM) in experiment [7].

For `NCCN1CCN(C(=O)NC(C(=O)N[C@H]2Cc3cccc(C(=O)O)c3OB2O)c2cc(Cl)c(O)cc2F)C(=O)C1=O` (stereo partly drawn) [Example 87, (3R)-3-(2-(4-(2-aminoethyl)-2,3-dioxopiperazine-1-carboxamido)-2-(5-chloro-2-fluoro-4-hydroxyphenyl)acetamido)-2-hydroxy-3,4-dihydro-2H-benzo[e][1,2]oxaborinine-8-carboxylic acid], the EC50 in experiment [1] was less than 30 µM. Besides, the MIC in experiment [2] was 4 to 8 µg/mL (≈ 6.76 to 13.5 µM); in experiment [3] it was 16 to 32 µg/mL (≈ 27 to 54.1 µM); in experiment [4], greater than 64 µg/mL; in experiment [5], 16 to 32 µg/mL (≈ 27 to 54.1 µM); in experiment [6], greater than 64 µg/mL; in experiment [7] it was 0.25 to 0.5 µg/mL (≈ 0.422 to 0.845 µM).

Molecule `NCCN1CCN(C(=O)N[C@@H](C(=O)N[C@H]2Cc3cccc(C(=O)O)c3OB2O)c2cc(Cl)c(O)cc2Cl)C(=O)C1=O` [Example 90, (R)-3-((R)-2-(4-(2-aminoethyl)-2,3-dioxopiperazine-1-carboxamido)-2-(2,5-dichloro-4-hydroxyphenyl)acetamido)-2-hydroxy-3,4-dihydro-2H-benzo[e][1,2]oxaborinine-8-carboxylic acid] showed an EC50 in experiment [1] of less than 30 µM. The MIC in experiment [2] was 16 to 32 µg/mL (≈ 26.3 to 52.6 µM); in experiment [3], greater than 64 µg/mL; in experiment [4], greater than 64 µg/mL; in experiment [5], greater than 64 µg/mL; in experiment [6], greater than 64 µg/mL; in experiment [7], 4 to 8 µg/mL (≈ 6.58 to 13.2 µM).

`NCCN1CCN(C(=O)NC(C(=O)N[C@H]2Cc3cccc(C(=O)O)c3OB2O)c2cc(F)c(O)cc2F)C(=O)C1=O` (stereo partly drawn) [Example 93, (3R)-3-(2-(4-(2-aminoethyl)-2,3-dioxopiperazine-1-carboxamido)-2-(2,5-difluoro-4-hydroxyphenyl)acetamido)-2-hydroxy-3,4-dihydro-2H-benzo[e][1,2]oxaborinine-8-carboxylic acid] had a concentration for a half-maximal effect (EC50) in experiment [1] of less than 30 µM. The MIC in experiment [2] was 4 to 8 µg/mL (≈ 6.95 to 13.9 µM); in experiment [3], greater than 64 µg/mL; in experiment [4] it was greater than 64 µg/mL; in experiment [5] it was greater than 64 µg/mL; in experiment [6] it was greater than 64 µg/mL; in experiment [7], 1 to 2 µg/mL (≈ 1.74 to 3.48 µM).

Molecule `NCCN1CCN(C(=O)NC(C(=O)N[C@H]2Cc3cccc(C(=O)O)c3OB2O)c2c(F)cc(O)cc2Cl)C(=O)C1=O` (stereo partly drawn) [Example 94, (3R)-3-(2-(4-(2-aminoethyl)-2,3-dioxopiperazine-1-carboxamido)-2-(2-chloro-6-fluoro-4-hydroxyphenyl)acetamido)-2-hydroxy-3,4-dihydro-2H-benzo[e][1,2]oxaborinine-8-carboxylic acid] yielded an EC50 in experiment [1] of less than 30 µM. Further, the MIC in experiment [2] is 16 to 32 µg/mL (≈ 27 to 54.1 µM); in experiment [3], greater than 64 µg/mL; in experiment [4] it was greater than 64 µg/mL; in experiment [5], greater than 64 µg/mL; in experiment [6], greater than 64 µg/mL; in experiment [7] it was 4 to 8 µg/mL (≈ 6.76 to 13.5 µM).

`CCN1CCN(C(=O)NC(C(=O)N[C@H]2Cc3cccc(C(=O)O)c3OB2O)c2c(F)cc(O)cc2Cl)C(=O)C1=O` (stereo partly drawn) [Example 95, (3R)-3-(2-(2-chloro-6-fluoro-4-hydroxyphenyl)-2-(4-ethyl-2,3-dioxopiperazine-1-carboxamido)acetamido)-2-hydroxy-3,4-dihydro-2H-benzo[e][1,2]oxaborinine-8-carboxylic acid] showed an EC50 in experiment [1] of less than 30 µM. The MIC in experiment [2] was 1 to 2 µg/mL (≈ 1.73 to 3.47 µM); in experiment [3], 4 to 8 µg/mL (≈ 6.94 to 13.9 µM); in experiment [4], 16 to 32 µg/mL (≈ 27.7 to 55.5 µM); in experiment [5], 16 to 32 µg/mL (≈ 27.7 to 55.5 µM); in experiment [6] it was 16 to 32 µg/mL (≈ 27.7 to 55.5 µM); in experiment [7], less than 0.125 µg/mL.

In experiment [1], `CCN1CCN(C(=O)NC(C(=O)N[C@H]2Cc3cccc(C(=O)O)c3OB2O)c2cccc(NC(=O)c3cncnc3)c2)C(=O)C1=O` (stereo partly drawn) [Example 96, (3R)-3-(2-(4-ethyl-2,3-dioxopiperazine-1-carboxamido)-2-(3-(pyrimidine-5-carboxamido)phenyl)acetamido)-2-hydroxy-3,4-dihydro-2H-benzo[e][1,2]oxaborinine-8-carboxylic acid] had a 50% effective concentration (EC50) of 30 to 500 µM. Besides, the MIC in experiment [2] was 16 to 32 µg/mL (≈ 25.4 to 50.8 µM); in experiment [3], greater than 64 µg/mL; in experiment [4], greater than 64 µg/mL; in experiment [5], greater than 64 µg/mL; in experiment [6] it was greater than 64 µg/mL; in experiment [7] it was 4 to 8 µg/mL (≈ 6.36 to 12.7 µM).

Values taken from patent US20230114728A1 (Venatorx Pharmaceuticals, Inc., priority 2019, published 2023).
